According to ChEMBL document CHEMBL5321213, “Nicolaioidesin C: An Antiausterity Agent Shows Promising Antitumor Activity in a Pancreatic Cancer Xenograft Mouse Model” (J Nat Prod, 2023):
Active and inactive are the calls of the source. The calls are words filed in the database; no cut-off is given here.

How the values were obtained:
MIA PaCa-2 [1] = assay: Antitumor activity against human MIA PaCa-2 cells xenografted in athymic BALB/c-nu mouse assessed as fold change in 3-sulfolactic acid level in tumor at 2 mg/kg/day, ip administered five times per week for 4 weeks by LC-MS analysis; format: functional
MIA PaCa-2 [2] = assay: Antitumor activity against human MIA PaCa-2 cells xenografted in athymic BALB/c-nu mouse assessed as tumor wet weight at 2 mg/kg/day, ip administered five times per week for 4 weeks (reference value: 368 mg); format: functional
MIA PaCa-2 [3] = assay: Antimetastatic activity in human MIA PaCa-2 cells in nutrient-rich medium assessed as open wound area at 20 uM measured every 15 mins for 48 hrs by live cell imaging analysis (reference value: 17%); format: functional
MIA PaCa-2 [4] = assay: Antitumor activity against human MIA PaCa-2 cells xenografted in athymic BALB/c-nu mouse assessed as fold change in cytosine level in tumor at 2 mg/kg/day, ip administered five times per week for 4 weeks by LC-MS analysis; format: functional
MIA PaCa-2 [5] = assay: Antitumor activity against human MIA PaCa-2 cells xenografted in athymic BALB/c-nu mouse assessed as fold change in N-acetylneuraminicacid level in tumor at 10 mg/kg/day, ip administered five times per week for 4 weeks by LC-MS analysis; format: functional
MIA PaCa-2 [6] = assay: Antitumor activity against human MIA PaCa-2 cells xenografted in athymic BALB/c-nu mouse assessed as fold change in tyrosine level in tumor at 2 mg/kg/day, ip administered five times per week for 4 weeks by LC-MS analysis; format: functional
MIA PaCa-2 [7] = assay: Antitumor activity against human MIA PaCa-2 cells xenografted in athymic BALB/c-nu mouse assessed as fold change in cytidine 5'-monophosphate level in tumor at 2 mg/kg/day, ip administered five times per week for 4 weeks by LC-MS analysis; format: functional
MIA PaCa-2 [8] = assay: Antitumor activity against human MIA PaCa-2 cells xenografted in athymic BALB/c-nu mouse assessed as fold change in 2,6-diaminopimelicacid level in tumor at 2 mg/kg/day, ip administered five times per week for 4 weeks by LC-MS analysis; format: functional
MIA PaCa-2 [9] = assay: Preferential cytotoxicity against human MIA PaCa-2 cells in nutrient-deprived medium measured after 24 hrs by WST-8 cell counting analysis; format: functional
PANC-1 [10] = assay: Preferential cytotoxicity against human PANC-1 cells in nutrient-deprived medium assessed as alteration in cell morphology by measuring leakage of cell components at 5 uM measured after 24 hrs by acridine orange and ethidium bromide dual fluorescent staining based imaging analysis; format: functional
PANC-1 [11] = assay: Preferential cytotoxicity against human PANC-1 cells in nutrient-deprived medium measured after 24 hrs by WST-8 cell counting analysis; format: functional
MIA PaCa-2 [12] = assay: Antitumor activity against human MIA PaCa-2 cells xenografted in athymic BALB/c-nu mouse assessed as fold change in D-glucuronic acid level in tumor at 2 mg/kg/day, ip administered five times per week for 4 weeks by LC-MS analysis; format: functional
MIA PaCa-2 [13] = assay: Antitumor activity against human MIA PaCa-2 cells xenografted in athymic BALB/c-nu mouse assessed as fold change in leucine level in tumor at 10 mg/kg/day, ip administered five times per week for 4 weeks by LC-MS analysis; format: functional
MIA PaCa-2 [14] = assay: Antitumor activity against human MIA PaCa-2 cells xenografted in athymic BALB/c-nu mouse assessed as fold change in cytidine 5'-monophosphate-N-acetylneuraminic acid level in tumor at 10 mg/kg/day, ip administered five times per week for 4 weeks by LC-MS analysis; format: functional
MIA PaCa-2 [15] = assay: Antitumor activity against human MIA PaCa-2 cells xenografted in athymic BALB/c-nu mouse assessed as fold change in D-glucosamine 6-phosphate level in tumor at 10 mg/kg/day, ip administered five times per week for 4 weeks by LC-MS analysis; format: functional
MIA PaCa-2 [16] = assay: Antitumor activity against human MIA PaCa-2 cells xenografted in athymic BALB/c-nu mouse assessed as fold change in alanine level in tumor at 10 mg/kg/day, ip administered five times per week for 4 weeks by LC-MS analysis; format: functional
MIA PaCa-2 [17] = assay: Antitumor activity against human MIA PaCa-2 cells xenografted in athymic BALB/c-nu mouse assessed as fold change in valine level in tumor at 2 mg/kg/day, ip administered five times per week for 4 weeks by LC-MS analysis; format: functional
MIA PaCa-2 [18] = assay: Antitumor activity against human MIA PaCa-2 cells xenografted in athymic BALB/c-nu mouse assessed as fold change in nicotinamide level in tumor at 10 mg/kg/day, ip administered five times per week for 4 weeks by LC-MS analysis; format: functional
PANC-1 [19] = assay: Preferential cytotoxicity against human PANC-1 cells in nutrient-deprived medium assessed as alteration in cell morphology by measuring rupture of cell membrane at 5 uM measured after 24 hrs by acridine orange and ethidium bromide dual fluorescent staining based imaging analysis; format: functional
MIA PaCa-2 [20] = assay: Antitumor activity against human MIA PaCa-2 cells xenografted in athymic BALB/c-nu mouse assessed as fold change in arabinosyl hypoxanthine level in tumor at 2 mg/kg/day, ip administered five times per week for 4 weeks by LC-MS analysis; format: functional
MIA PaCa-2 [21] = assay: Antitumor activity against human MIA PaCa-2 cells xenografted in athymic BALB/c-nu mouse assessed as reduction in mTOR phosphorylation at S2481 residue in tumor at 10 mg/kg/day, ip administered five times per week for 4 weeks by Western blot analysis; format: functional, organism-based
MIA PaCa-2 [22] = assay: Antitumor activity against human MIA PaCa-2 cells xenografted in athymic BALB/c-nu mouse assessed as fold change in serine level in tumor at 2 mg/kg/day, ip administered five times per week for 4 weeks by LC-MS analysis; format: functional
MIA PaCa-2 [23] = assay: Antitumor activity against human MIA PaCa-2 cells xenografted in athymic BALB/c-nu mouse assessed as fold change in biotin level in tumor at 10 mg/kg/day, ip administered five times per week for 4 weeks by LC-MS analysis; format: functional
MIA PaCa-2 [24] = assay: Inhibition of Akt/mTOR signaling pathway in human MIA PaCa-2 cells in nutrient-deprived medium assessed as reduction in AKT phosphorylation at S473 residue measured after 6 hrs by Western blot analysis; format: cell-based; conditions: dose 5-20 µM
MIA PaCa-2 [25] = assay: Antitumor activity against human MIA PaCa-2 cells xenografted in athymic BALB/c-nu mouse assessed as fold change in glycerol 3-phosphate level in tumor at 2 mg/kg/day, ip administered five times per week for 4 weeks by LC-MS analysis; format: functional
MIA PaCa-2 [26] = assay: Antitumor activity against human MIA PaCa-2 cells xenografted in athymic BALB/c-nu mouse assessed as fold change in tyrosine level in tumor at 10 mg/kg/day, ip administered five times per week for 4 weeks by LC-MS analysis; format: functional
MIA PaCa-2 [27] = assay: Antitumor activity against human MIA PaCa-2 cells xenografted in athymic BALB/c-nu mouse assessed as fold change in Gly-Leu metabolite level in tumor at 2 mg/kg/day, ip administered five times per week for 4 weeks by LC-MS analysis; format: functional
MIA PaCa-2 [28] = assay: Antitumor activity against human MIA PaCa-2 cells xenografted in athymic BALB/c-nu mouse assessed as fold change in cytidine level in tumor at 2 mg/kg/day, ip administered five times per week for 4 weeks by LC-MS analysis; format: functional
MIA PaCa-2 [29] = assay: Antitumor activity against human MIA PaCa-2 cells xenografted in athymic BALB/c-nu mouse assessed as fold change in phenyl alanine level in tumor at 2 mg/kg/day, ip administered five times per week for 4 weeks by LC-MS analysis; format: functional

COc1cc(O)c(C(=O)[C@@H]2CC=C(CCC=C(C)C)C[C@H]2c2ccccc2)c(O)c1
fold change (FC) (MIA PaCa-2 [1]): 0.48 | Activity (MIA PaCa-2 [2]): 181 mg | Activity (MIA PaCa-2 [3]): 66% | fold change (FC) (MIA PaCa-2 [4]): 0.73 | fold change (FC) (MIA PaCa-2 [5]): 0.4 | fold change (FC) (MIA PaCa-2 [6]): 0.41 | fold change (FC) (MIA PaCa-2 [7]): 0.4 | fold change (FC) (MIA PaCa-2 [8]): 0.53 | PC50 (MIA PaCa-2 [9]): 2.9 µM | Activity (PANC-1 [10]): Active | PC50 (PANC-1 [11]): 3.4 µM | fold change (FC) (MIA PaCa-2 [12]): 1.03 | fold change (FC) (MIA PaCa-2 [13]): 0.41 | fold change (FC) (MIA PaCa-2 [14]): 0.31 | fold change (FC) (MIA PaCa-2 [15]): 0.36 | fold change (FC) (MIA PaCa-2 [16]): 0.42 | fold change (FC) (MIA PaCa-2 [17]): 0.44 | fold change (FC) (MIA PaCa-2 [18]): 0.39 | Activity (PANC-1 [19]): Active | fold change (FC) (MIA PaCa-2 [20]): 0.46 | Activity (MIA PaCa-2 [21]): Active | fold change (FC) (MIA PaCa-2 [22]): 0.49 | fold change (FC) (MIA PaCa-2 [23]): 0.43 | inhibition (MIA PaCa-2 [24]): Dose-Dependent Effect | fold change (FC) (MIA PaCa-2 [25]): 0.4 | fold change (FC) (MIA PaCa-2 [26]): 0.43 | fold change (FC) (MIA PaCa-2 [27]): 0.45 | fold change (FC) (MIA PaCa-2 [28]): 0.62 | fold change (FC) (MIA PaCa-2 [29]): 0.44
